Experimental findings from patent EP0120359A1, “Tetrahydrothiophenone derivative active in respiratory system affections” (YASON S.r.l, priority 1983, dated 1984) are described below.

One data set relates to Sprague-Dawley rats. The experiment in a line: Bronchosecretogogue activity, Mawatari test. Type of data set: in vivo. The following applies: rat. An excerpt:
The bronchosecretogogue activity of YS-869 was evalued by the test of Mawatari in Sprague-Dawley rats (Mawatari H. "Experimental Studies on the expectorant action of several drugs" - Kagoshima Daiga ken Igaken Zasshi. 27, 561, 1976), in comparison with known drugs.
This method consists in determinating the amount of […] eliminated with the fluid in the respiratory tract.

Another data set has as its system rats. Type of data set: in vivo. Conditions: 200 mg/kg p.o. The method, then: The gastro-injuring activity was determined by administering rats with equimolecular dosages of YS-869 and acetylsalicylic acid (252 mg/kg and 200 mg/kg respectively).
A further data set deals with rat paw. The data set is described as follows: Antiinflammatory activity, carrageenin oedema in rat paw. The class given is in vivo. Conditions: for Paw volume 2 h / Paw volume 4 h / Paw volume 6 h / Paw volume 8 h / Paw volume 24 h / Paw volume Basal: mean ± S.E.; for AREA % M±E.S.: area of the paw volume curve; for AREA Inhibition versus control: oedema inhibiting activity. The method, then:
The antiinflammatory activity of YS-869 in comparison with acetylsalicylic acid was evaluated by the test of oedema induced by carrageening injection in rat paw (Winter, Rissly, Ness.; Proc. Soc. Exp. Biol. Med., Ill, 544-47 - 1962).

For the next data set, the system named is rabbit. The data set is described as follows: Antitussive activity, citric acid induced cough. The class given is in vivo. An excerpt:
The antitussive activity of YS-869 was evalued by the citric acid test in the rabbit (Boura et al., Prog. Brit. Pharmac. Soc. Communications, April 1970), in comparison with codeine.
Such method consists in counting the coughs stro kes caused in the animal by the nebulization of a citric acid solution.

The nature of data set [1]: Solubility in organic solvents. Conditions: common organic solvents.

Like-named read-outs stand apart in the source and are kept apart here.

`Nc1c(Br)cc(Br)cc1CN[C@H]1CC[C@H](O)CC1` [AMBROXOL, Ambroxol]: in the data set on Sprague-Dawley rats (50 mg/kg i.p.), the “Fl Na” value stood at 0.36 ± 0.037 µg/mL and the “Fl Na % increase versus contr.” value came out at 28.6%.
On to `CC(=O)Oc1ccccc1C(=O)O` [Acetyl-salicy-lic acid, acetylsalicylic acid], for which the “ULCERS (gastric ulcers average size)” value with rats was found to be 27.7±6.37 mm. In addition, the “ULCERS (gastric ulcers average size)” value with rats (listed as acetylsalicylic acid) was found to be 27.7 mm. Also, in the data set with rat paw (200 mg/kg p.o.), the “Paw volume 2 h” value is 43.5 ±1.5 ml/10, the “Paw volume 4 h” value is on record as 49.3 ±2.0 ml/10, the “Paw volume 6 h” value was found to be 51.4 ±1.7 ml/10 and the “Paw volume 8 h” value worked out at 51.5 ±2.0 ml/10. In addition, in the data set with rat paw (200 mg/kg p.o.), the “Paw volume 24 h” value is reported as 42.8 ±1.7 ml/10, the “AREA % M±E.S.” value turned out to be 151.38 ±13.1%, the “Paw volume Basal” value was determined as 36.1 ±1.1 ml/10 and the “AREA Inhibition versus control” value worked out at 26.94%.
`COc1ccc2c3c1O[C@H]1[C@@H](O)C=C[C@H]4[C@@H](C2)N(C)CC[C@@]341` [CODEINE, codeine]: the “% inhibition versus control” value in the data set with rabbit (25 mg/kg i.p.) was determined as 70.4%.
In the case of `N[C@@H](CSCC(=O)O)C(=O)O` [S-CARBOXY-METHYL-CY-STEINE, S-carboxymethyl-cysteine], in the data set on Sprague-Dawley rats (500 mg/kg i.p.), the “Fl Na” value was 0.41 ± 0.036 µg/mL and the “Fl Na % increase versus contr.” value is on record as 46.4%.
Consider `O=C(NC1CCSC1=O)c1cccs1` (stereo not drawn) [YS-869, N-(2-thenoyl)-N-(2-keto-2,3,4,5-tetrahydro-thiophene-3-yl)amine], for which the solubility result in data set [1] is listed as “soluble in common organic solvents”. For the same compound, the “Fl Na” value in the data set on Sprague-Dawley rats (500 mg/kg i.p.) came out at 0.42 ± 0.0450 µg/mL. In addition, the “Fl Na % increase versus contr.” value in the data set on Sprague-Dawley rats (500 mg/kg i.p., 500 mg/kg) stood at 50%. Moreover, in the data set on rabbit (100 mg/kg i.p.), the “% inhibition versus control” value was 21.5%. Further, in the data set on rat paw (252 mg/kg p.o.), the “Paw volume 2 h” value worked out at 48.2 ±1.2 ml/10, the “Paw volume 4 h” value came to 54.1 ±2.3 ml/10, the “Paw volume 6 h” value is reported as 52.1 ±2.9 ml/10 and the “Paw volume 8 h” value is listed as 51.4 ±2.5 ml/10. Further, in the data set on rat paw (252 mg/kg p.o.), the “Paw volume 24 h” value is given as 41 ±1.4 ml/10, the “AREA % M±E.S.” value is 165.21 ±13.1%, the “Paw volume Basal” value was 36.8 ±1.0 ml/10 and the “AREA Inhibition versus control” value was found to be 20.26%.
